Experimental data as given in ChEMBL document CHEMBL1133345, “The synthesis and evaluation of 2-substituted-7-(alkylidene)cephalosporin sulfones as beta-lactamase inhibitors” (Bioorg Med Chem Lett, 2000).

What was measured:
[1] = biological target: Beta-lactamase TEM (Escherichia coli, UniProt P62593); assay: The compound was evaluated for inhibition against Beta-lactamase TEM […]
[2] = biological target: Beta-lactamase class C (Enterobacter cloacae, UniProt Q59401); assay: Inhibition of Class C beta-lactamase from Enterobacter cloacae strain P99
Chain of Beta-lactamase class C (Q59401 whole entry): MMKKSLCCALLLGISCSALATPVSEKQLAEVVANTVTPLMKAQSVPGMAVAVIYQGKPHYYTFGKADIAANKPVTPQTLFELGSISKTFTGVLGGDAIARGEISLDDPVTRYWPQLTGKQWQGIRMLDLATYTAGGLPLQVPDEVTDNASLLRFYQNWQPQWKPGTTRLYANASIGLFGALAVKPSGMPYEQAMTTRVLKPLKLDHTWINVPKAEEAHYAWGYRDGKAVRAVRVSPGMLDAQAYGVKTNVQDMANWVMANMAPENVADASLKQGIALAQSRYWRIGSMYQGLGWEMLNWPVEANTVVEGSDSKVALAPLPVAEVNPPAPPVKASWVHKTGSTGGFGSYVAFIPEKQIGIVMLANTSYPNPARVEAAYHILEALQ

[3] = biological target: Beta-lactamase (Staphylococcus aureus, UniProt P00807); assay: The compound was evaluated for inhibition against Beta-lactamase derived from Staphylococcus aureus
Chain of Beta-lactamase (P00807 whole entry): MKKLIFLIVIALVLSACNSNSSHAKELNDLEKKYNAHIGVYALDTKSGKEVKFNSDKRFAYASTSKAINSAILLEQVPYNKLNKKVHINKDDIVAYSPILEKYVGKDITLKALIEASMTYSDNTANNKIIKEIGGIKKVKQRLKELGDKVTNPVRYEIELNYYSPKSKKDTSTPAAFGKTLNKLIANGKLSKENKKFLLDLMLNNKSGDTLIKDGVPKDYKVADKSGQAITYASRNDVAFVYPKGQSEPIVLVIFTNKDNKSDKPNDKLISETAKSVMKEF

Chain of Beta-lactamase TEM (P62593 whole entry): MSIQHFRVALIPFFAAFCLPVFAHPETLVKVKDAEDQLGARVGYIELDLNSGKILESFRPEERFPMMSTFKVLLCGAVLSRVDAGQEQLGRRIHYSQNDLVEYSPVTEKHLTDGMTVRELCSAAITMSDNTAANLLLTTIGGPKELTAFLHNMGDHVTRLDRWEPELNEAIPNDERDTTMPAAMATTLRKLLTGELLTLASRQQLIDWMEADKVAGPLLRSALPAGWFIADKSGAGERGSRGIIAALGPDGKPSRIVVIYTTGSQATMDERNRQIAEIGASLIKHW

Which IC50 [1] does the source give for `C=C1C(C)=C(C(=O)O)N2C(=O)/C(=C/C(=O)O)[C@H]2S1(=O)=O` here?
Its IC50 is 277 µM.

What about the IC50 [2] of the same compound?
Its IC50 is 36.8 µM.

Which results are given for `C=C1C(C)=C(C(=O)O)N2C(=O)/C(=C/c3ccccn3)[C@H]2S1(=O)=O`?
IC50 [1]: 91.1 µM; IC50 [3]: 1860 µM; IC50 [2]: 0.039 µM

Which results are given for `C=C1C(CSc2nnnn2C)=C(C(=O)O)N2C(=O)/C(=C/C(=O)OC(C)(C)C)[C@H]2S1(=O)=O`?
IC50 [1]: 1.13 µM; IC50 [2]: 2.38 µM

With `C=C1C(COC(C)=O)=C(C(=O)O)N2C(=O)/C(=C/C(=O)OC(C)(C)C)[C@H]2S1(=O)=O` as the compound, how does the IC50 [2] read?
The IC50 was 1.55 µM.

`CSC(SC)=C1C(C)=C(C(=O)O)N2C(=O)/C(=C/c3ccccn3)[C@H]2S1(=O)=O` was tested. Which IC50 [1] did it give?
The IC50 was 173 µM.

And the IC50 [2]?
Its IC50 is 0.51 µM.

Which IC50 [1] does the source give for `CC(=O)OCC1=C(C(=O)O)N2C(=O)/C(=C/c3ccccn3)[C@H]2S(=O)(=O)C1` here?
Its IC50 is 34.8 µM.

What about the IC50 [3] of the same compound?
The IC50 was 402 µM.

And the IC50 [2]?
The IC50 was 0.498 µM.

What does the source list for `CC(=O)OCC1=C(C(=O)O)N2C(=O)/C(=C/C(=O)OC(C)(C)C)[C@H]2S(=O)(=O)C1`?
IC50 [1]: 0.03 µM; IC50 [3]: 977 µM; IC50 [2]: 6.56 µM

With `C=C1C(COC(C)=O)=C(C(=O)O)N2C(=O)/C(=C/c3ccccn3)[C@H]2S1(=O)=O` as the compound, how does the IC50 [3] read?
The IC50 was 733 µM.

What about the IC50 [2] of the same compound?
The IC50 was 0.165 µM.

With `CC1=C(C(=O)O)N2C(=O)/C(=C/c3ccccn3)[C@H]2S(=O)(=O)[C@@H]1Sc1nnnn1C` as the compound, how does the IC50 [1] read?
The IC50 was 31.6 µM.

What about the IC50 [3] of the same compound?
Its IC50 is 844 µM.

And the IC50 [2]?
The IC50 was 29 µM.

`C=C1C(COC(C)=O)=C(C(=O)O)N2C(=O)/C(=C/C(=O)O)[C@H]2S1(=O)=O` was tested. Which IC50 [1] did it give?
Its IC50 is 498 µM.

And the IC50 [3]?
Its IC50 is 230 µM.

And the IC50 [2]?
The IC50 was 2.49 µM.

For `C=C1C(C)=C(C(=O)O)N2C(=O)/C(=C/C(=O)OC(C)(C)C)[C@H]2S1(=O)=O`, which IC50 [2] is on record?
Its IC50 is 48.6 µM.

Which results are given for `CC1=C(C(=O)O)N2C(=O)/C(=C/c3ccccn3)[C@H]2S(=O)(=O)C1C` (stereo partly drawn)?
IC50 [1]: 74.1 µM; IC50 [3]: 102 µM; IC50 [2]: 3.9 µM
